Data published in patent US20200181117A1, “SUBSTITUTED 3-HETEROARYLOXY-1H-PYRAZOLES AND SALTS THEREOF AND THEIR USE AS HERBICIDAL ACTIVE SUBSTANCES” (BAYER CROPSCIENCE AKTIENGESELLSCHAFT, priority 2017, published 2020).

Key:
Type in all cases: in vivo
Amaranthus retroflexus [1] = assay: Post-emergence herbicidal action; details: 1280 g/ha, rated visually after about 3 weeks vs untreated controls
In short: (§1)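 Visual % activity versus untreated controls (100% = plants died, 0% = like controls), scored about 3 weeks after a foliar spray. Greenhouse plants in sandy loam were treated at one-leaf stage with 1280 g/ha in aqueous spray containing 0.5% additive, 600 l/ha.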

Ipomoea purpurea = assay: Post-emergence herbicidal action; details: 1280 g/ha, rated visually after about 3 weeks vs untreated controls
In short: as §1

Viola tricolor [2] = assay: Post-emergence herbicidal action; details: 1280 g/ha, rated visually after about 3 weeks vs untreated controls
In short: as §1

Pharbitis purpurea [3] = assay: Post-emergence herbicidal action; details: 1280 g/ha, rated visually after about 3 weeks vs untreated controls
In short: as §1

Amaranthus retroflexus [4] = assay: Pre-emergence herbicidal action; details: 1280 g/ha, scored visually after about 3 weeks vs untreated controls
In short: (§2)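 Covered seeds received aqueous suspension or emulsion of formulated compound at 1280 g/ha with 0.5% additive and 600 l/ha water. Pots grew under good greenhouse conditions, and after approximately 3 weeks the effect was estimated visually as a percentage, 100% denoting plants that died.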

Stellaria media [5] = assay: Pre-emergence herbicidal action; details: 1280 g/ha, scored visually after about 3 weeks vs untreated controls
In short: as §2

Viola tricolor [6] = assay: Pre-emergence herbicidal action; details: 1280 g/ha, scored visually after about 3 weeks vs untreated controls
In short: as §2

Setaria viridis [7] = assay: Pre-emergence herbicidal action; details: 1280 g/ha, scored visually after about 3 weeks vs untreated controls
In short: as §2

Matricaria inodora = assay: Pre-emergence herbicidal action; details: 1280 g/ha, scored visually after about 3 weeks vs untreated controls
In short: as §2

Polygonum convolvulus [8] = assay: Pre-emergence herbicidal action; details: 1280 g/ha, scored visually after about 3 weeks vs untreated controls
In short: as §2

Echinochloa crus-galli [9] = assay: Post-emergence herbicidal action; details: 1280 g/ha, rated visually after about 3 weeks vs untreated controls
In short: as §1

Alopecurus myosuroides [10] = assay: Pre-emergence herbicidal action; details: 1280 g/ha, scored visually after about 3 weeks vs untreated controls
In short: as §2

Veronica persica = assay: Pre-emergence herbicidal action; details: 1280 g/ha, scored visually after about 3 weeks vs untreated controls
In short: as §2

Echinochloa crus-galli [11] = assay: Pre-emergence herbicidal action; details: 1280 g/ha, scored visually after about 3 weeks vs untreated controls
In short: as §2

Abutilon theophrasti [12] = assay: Pre-emergence herbicidal action; details: 1280 g/ha, scored visually after about 3 weeks vs untreated controls
In short: as §2

Hordeum murinum = assay: Pre-emergence herbicidal action; details: 1280 g/ha, scored visually after about 3 weeks vs untreated controls
In short: as §2

Alopecurus myosuroides [13] = assay: Post-emergence herbicidal action; details: 1280 g/ha, rated visually after about 3 weeks vs untreated controls
In short: as §1

Setaria viridis [14] = assay: Post-emergence herbicidal action; details: 1280 g/ha, rated visually after about 3 weeks vs untreated controls
In short: as §1

Abutilon theophrasti [15] = assay: Post-emergence herbicidal action; details: 1280 g/ha, rated visually after about 3 weeks vs untreated controls
In short: as §1

Avena fatua [16] = assay: Pre-emergence herbicidal action; details: 1280 g/ha, scored visually after about 3 weeks vs untreated controls
In short: as §2

Pharbitis purpurea [17] = assay: Pre-emergence herbicidal action; details: 1280 g/ha, scored visually after about 3 weeks vs untreated controls
In short: as §2

Lolium rigidum [18] = assay: Pre-emergence herbicidal action; details: 1280 g/ha, scored visually after about 3 weeks vs untreated controls
In short: as §2

Stellaria media [19] = assay: Post-emergence herbicidal action; details: 1280 g/ha, rated visually after about 3 weeks vs untreated controls
In short: as §1

Polygonum convolvulus [20] = assay: Post-emergence herbicidal action; details: 1280 g/ha, rated visually after about 3 weeks vs untreated controls
In short: as §1

Lolium rigidum [21] = assay: Post-emergence herbicidal action; details: 1280 g/ha, rated visually after about 3 weeks vs untreated controls
In short: as §1

Avena fatua [22] = assay: Post-emergence herbicidal action; details: 1280 g/ha, rated visually after about 3 weeks vs untreated controls
In short: as §1

| SMILES | herbicidal activity on Amaranthus retroflexus (Amaranthus retroflexus [1]) [%] | herbicidal activity on Ipomoea purpurea (Ipomoea purpurea) [%] | herbicidal activity on Viola tricolor (Viola tricolor [2]) [%] | herbicidal activity on Pharbitis purpurea (Pharbitis purpurea [3]) [%] | herbicidal activity on Amaranthus retroflexus (Amaranthus retroflexus [4]) [%] | herbicidal activity on Stellaria media (Stellaria media [5]) [%] | herbicidal activity on Viola tricolor (Viola tricolor [6]) [%] | herbicidal activity on Setaria viridis (Setaria viridis [7]) [%] | herbicidal activity on Matricaria inodora (Matricaria inodora) [%] | herbicidal activity on Polygonum convolvulus (Polygonum convolvulus [8]) [%] | herbicidal activity on Echinochloa crus-galli (Echinochloa crus-galli [9]) [%] | herbicidal activity on Alopecurus myosuroides (Alopecurus myosuroides [10]) [%] | herbicidal activity on Veronica persica (Veronica persica) [%] | herbicidal activity on Echinochloa crus-galli (Echinochloa crus-galli [11]) [%] | herbicidal activity on Abutilon theophrasti (Abutilon theophrasti [12]) [%] | herbicidal activity on Hordeum murinum (Hordeum murinum) [%] | herbicidal activity on Alopecurus myosuroides (Alopecurus myosuroides [13]) [%] | herbicidal activity on Setaria viridis (Setaria viridis [14]) [%] | herbicidal activity on Avena fatua (Avena fatua [16]) [%] | herbicidal activity on Lolium rigidum (Lolium rigidum [18]) [%] | other results |
| --- | --- | --- | --- | --- | --- | --- | --- | --- | --- | --- | --- | --- | --- | --- | --- | --- | --- | --- | --- | --- | --- |
| CCc1c(Sc2ccc(F)cc2)c(Oc2ncc(OC)cn2)nn1C [Example I-186] | 100 | 80 | 100 | 80 | 100 | 100 | 100 | 100 | 90 | 80 | – | – | – | – | – | – | – | – | – | – | – |
| COc1cnc(Oc2nn(C)c(C)c2Sc2ccc(Cl)cc2)nc1 [Example I-066] | 80 | 80 | 100 | 80 | 100 | 100 | 100 | 100 | 100 | 90 | 80 | 80 | 100 | 100 | 90 | 100 | – | – | – | – | – |
| CCc1c(Sc2ccc(F)cc2F)c(Oc2ncc(OC)cn2)nn1C [Example I-207] | 90 | 90 | 80 | 90 | 100 | 100 | 100 | 100 | – | 80 | – | – | 100 | – | 80 | – | – | – | – | – | – |
| Fc1ccc(Sc2c(Oc3ncccn3)nn3c2CCC3)cc1 [Example I-097] | 80 | – | 80 | 90 | 90 | 100 | 100 | 100 | 100 | 100 | 100 | 100 | 90 | 100 | 100 | 90 | 90 | 90 | 80 | – | herbicidal activity on Abutilon theophrasti (Abutilon theophrasti [15]): 90%; herbicidal activity on Pharbitis purpurea (Pharbitis purpurea [17]): 90% |
| Cn1cc(Sc2ccc(F)cc2)c(Oc2ncc(Cl)cn2)n1 [Example I-095] | 100 | 80 | 100 | 80 | 100 | 100 | 100 | 100 | 100 | 90 | 80 | 100 | 100 | 100 | 100 | 100 | – | – | 100 | 100 | – |
| Cc1c(Sc2ccc(F)cc2Cl)c(Oc2ncccn2)nn1C [Example I-135] | 100 | 80 | 100 | 80 | 100 | 100 | 100 | 100 | 90 | 90 | – | 100 | 100 | 100 | 100 | 80 | – | – | 80 | 90 | herbicidal activity on Stellaria media (Stellaria media [19]): 90% |
| CCc1c(Sc2ccc(F)cc2F)c(Oc2ncc(F)cn2)nn1C [Example I-094] | 100 | – | 100 | 100 | 100 | 100 | 100 | 100 | 100 | 90 | 80 | 100 | 100 | 100 | 100 | 100 | – | – | – | 80 | herbicidal activity on Stellaria media (Stellaria media [19]): 100%; herbicidal activity on Abutilon theophrasti (Abutilon theophrasti [15]): 90%; herbicidal activity on Polygonum convolvulus (Polygonum convolvulus [20]): 90%; herbicidal activity on Pharbitis purpurea (Pharbitis purpurea [17]): 100% |
| COc1cnc(Oc2nn(C)c(C)c2Sc2ccc(F)c(F)c2)nc1 [Example I-157] | 100 | – | 100 | – | 100 | 100 | 100 | 100 | 100 | 100 | 100 | 100 | 100 | 100 | 100 | 100 | 100 | 80 | 100 | 100 | herbicidal activity on Lolium rigidum (Lolium rigidum [21]): 80%; herbicidal activity on Abutilon theophrasti (Abutilon theophrasti [15]): 90%; herbicidal activity on Polygonum convolvulus (Polygonum convolvulus [20]): 80% |
| COc1cnc(Oc2nn(C)c(C)c2Sc2ccc(F)cc2)nc1 [Example I-089] | – | – | – | – | 100 | 100 | 100 | 100 | 100 | 90 | – | 90 | 100 | 100 | 100 | 90 | 90 | 80 | 80 | 90 | herbicidal activity on Avena fatua (Avena fatua [22]): 80%; herbicidal activity on Polygonum convolvulus (Polygonum convolvulus [20]): 90% |
